In this experiment the test system is GSK3α. The experiment is described as follows: Immunoblots of p-GSK3α in H1975 cells. The experiment is classed as cell-based, human. The following applies: 10 μM, 24 h, compared to Gefitinib and AZD9291. On the procedure: For western blot analysis, cells were collected and washed with PBS, then lysed in radioimmunoprecipitation assay (RIPA) buffer (1% Triton X-100, 100 mM Tris-HCl pH 8.8, 100 mM NaCl, 0.5 mM EDTA). After incubation on ice for 30 min, the lysates were centrifuged at 12,000 × g for 10 min at 4 °C. The supernatant was collected and the protein concentration was measured by bicinchoninic acid reaction. Protein samples were added with 2× loading buffer and heated at 100 °C for 10 min, separated with SDS-polyacrylamide gel electrophoresis (SDS-PAGE), transferred onto polyvinylidene difluoride membranes, and blocked with 5% non-fat milk in Phosphate Buffered Saline with 0.1% Tween-20 (PBST) for 1 h at room temperature. The membranes were probed with the corresponding primary antibodies at 4 °C overnight and horseradish peroxidase-conjugated secondary antibodies at room temperature for 1 h. Signals were detected using chemiluminescence reagents (#4AW001-500, 4A649 Biotech, Co.).
Flag-EV Flag-PD-L1 Flag-EV Flag-PD-L1
43 Flag-PD-L1-TM Flag-PD-L1-TM
GSK3 concenseus phosphorylation motif:S/TXXX S/T EGFR 180 […]
Supplementary Figure 4. […] Quantification for the mean area (MA) of PD-L1/GSK3α (n = 50) or PD-L1/GSK3β (n = 44-50) PLA speckles are indicated by scattergram. […]

Take `C=CC(=O)Nc1cccc(Nc2nc(Nc3ccc(N4CCN(C)CC4)nc3OC)ncc2C(F)(F)F)c1` [ES-072]: the “activation effect on GSK3α (loss of the inhibitory phosphorylation of GSK3α)” value is on record as “higher activation effect”.

Values taken from paper PMC8058344, “ARIH1 signaling promotes anti-tumor immunity by targeting PD-L1 for proteasomal degradation” (Nature Communications, 2021).
